Toxic doses and inconclusive results are not listed. Cut-off read from the data, not from the text of the source: active = T/C of 150% or more; inactive = T/C below 125%.
Test system: L1210 leukemia ip in BDF1 mice, survival T/C
Test: NCI In Vivo Anticancer Drug Screen. Data for tumor model L1210 Leukemia (intraperitoneal) in B6D2F1 (BDF1) mice
Conditions: endpoint: mean survival time, higher = longer survival
In short: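 Read-out is survival time, reported as the treated-group measurement over the vehicle-control measurement.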

Measured: T/C

COC(=O)C1CN1C(c1ccccc1)(c1ccccc1)c1ccccc1 (stereo not drawn)
inactive: dose: 100.0 mg/kg/injection, schedule: Q01DX001 (ip), vehicle: saline with Tween-80 92 % of control | dose: 100.0 mg/kg/injection, schedule: Q04DX003 (ip), vehicle: saline with Tween-80 94 % of control | dose: 200.0 mg/kg/injection, schedule: Q01DX001 (ip), vehicle: saline with Tween-80 100 % of control | dose: 200.0 mg/kg/injection, schedule: Q04DX003 (ip), vehicle: saline with Tween-80 98 % of control | dose: 400.0 mg/kg/injection, schedule: Q01DX001 (ip), vehicle: saline with Tween-80 90 % of control | dose: 400.0 mg/kg/injection, schedule: Q04DX003 (ip), vehicle: saline with Tween-80 90 % of control

Cc1c[n+](Cc2ccccc2)cc(C)n1
inactive: dose: 75.0 mg/kg/injection, schedule: Q01DX001 (ip), vehicle: saline 105 % of control | dose: 150.0 mg/kg/injection, schedule: Q01DX001 (ip), vehicle: saline 98 % of control

Reference: PubChem BioAssay AID248 (DTP/NCI, 2004)
